Assay [1] concerns the target T1, SOS1 protein (Homo sapiens, UniProt Q07889).
T1 sequence (Q07889 1-1333): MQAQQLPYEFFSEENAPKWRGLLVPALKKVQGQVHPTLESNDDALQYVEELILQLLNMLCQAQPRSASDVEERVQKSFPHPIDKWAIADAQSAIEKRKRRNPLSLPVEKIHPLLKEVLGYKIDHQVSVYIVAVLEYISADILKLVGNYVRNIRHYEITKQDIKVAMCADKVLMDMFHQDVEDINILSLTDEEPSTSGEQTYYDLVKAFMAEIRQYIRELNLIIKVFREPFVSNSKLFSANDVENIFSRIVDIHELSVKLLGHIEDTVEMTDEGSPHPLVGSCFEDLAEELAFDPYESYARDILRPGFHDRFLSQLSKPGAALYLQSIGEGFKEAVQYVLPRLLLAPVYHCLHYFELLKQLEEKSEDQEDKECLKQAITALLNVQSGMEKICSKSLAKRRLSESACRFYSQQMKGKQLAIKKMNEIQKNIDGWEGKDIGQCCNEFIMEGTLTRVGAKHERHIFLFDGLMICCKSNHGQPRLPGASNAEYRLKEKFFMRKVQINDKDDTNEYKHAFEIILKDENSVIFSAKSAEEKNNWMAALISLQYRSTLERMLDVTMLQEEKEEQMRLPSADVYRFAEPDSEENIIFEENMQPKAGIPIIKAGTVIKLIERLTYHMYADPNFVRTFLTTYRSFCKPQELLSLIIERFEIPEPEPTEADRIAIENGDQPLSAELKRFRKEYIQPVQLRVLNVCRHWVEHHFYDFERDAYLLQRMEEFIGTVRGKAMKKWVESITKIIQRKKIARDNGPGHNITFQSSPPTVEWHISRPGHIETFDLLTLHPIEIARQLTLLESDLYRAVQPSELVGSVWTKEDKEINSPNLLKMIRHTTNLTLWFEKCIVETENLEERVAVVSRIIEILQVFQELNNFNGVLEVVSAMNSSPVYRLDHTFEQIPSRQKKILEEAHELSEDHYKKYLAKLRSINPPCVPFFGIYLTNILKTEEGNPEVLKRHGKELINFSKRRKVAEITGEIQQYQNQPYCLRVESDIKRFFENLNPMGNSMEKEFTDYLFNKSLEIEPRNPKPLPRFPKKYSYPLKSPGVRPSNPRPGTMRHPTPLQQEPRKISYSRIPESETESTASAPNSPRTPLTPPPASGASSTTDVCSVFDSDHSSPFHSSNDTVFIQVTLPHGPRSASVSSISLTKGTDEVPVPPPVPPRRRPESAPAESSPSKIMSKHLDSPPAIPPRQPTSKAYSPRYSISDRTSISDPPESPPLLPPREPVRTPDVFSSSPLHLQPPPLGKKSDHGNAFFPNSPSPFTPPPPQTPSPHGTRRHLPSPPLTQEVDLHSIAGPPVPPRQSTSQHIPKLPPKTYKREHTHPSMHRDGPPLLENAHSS
Briefly: SOS1 degradation assay (Western blot), DLD-1 cells. Format: cell-based. Also on record: host or cells: DLD-1 (human cancer cell lines). The following applies: 24 h; for DC50: read-out: DLD-1 (G13D) DC50; for Dmax: read-out: DLD-1 (G13D) Dmax. As for the experimental part: (§1) The specific procedures were as follows:
(§2) 0.95 mL of cells were seeded into each well of a 24-well cell culture plate to achieve a cell density of 5×10^5 cells/well; the cell plate was incubated in an incubator at 37° C. with 5% CO2 overnight. Then 50 μL of the compound solution after dilution was added to each of the wells with the corresponding cells, so that the final concentration of the compound was in a range of 0.03-3000 nM. […] After dosing, the cell plate was incubated in an incubator at 37° C. with 5% CO2 for 24 h. […] After the plate was left to stand on ice for 30 min, the protein lysate in each well was transferred to a 1.5 mL centrifuge tube and centrifuged at 15000 g for 20 min at 4° C. The cell lysate supernatant after centrifugation was cryopreserved at −80° C. for testing and was used for determining the degradation level of the SOS1 protein by a WB method. The concentration of total protein in the cell lysate supernatant was determined using the BCA Protein Quantification Kit (Tiangen, PA115-02).
(§3) The concentration of total protein in the cell lysate was determined by BCA. The total protein was adjusted to 0.5 μg/μL with PBS and 5× SDS-PAGE protein loading buffer (Beyotime, P0015L), incubated in a water bath at 100° C. for 15 min, incubated in an ice bath on ice for 5 min, centrifuged at 14000 g for 1 min at 4° C., and mixed well as a loading sample for WB. Protein electrophoresis was performed on a precast gel (KeyGEN, KGMGO10W15) with a loading volume of 10 μL (total protein: 5 μg) using a Tris-MOPS-SDS running solution (Adamas, P1598253) at a constant voltage of 120 V for 55 min. After the electrophoresis, the protein on the gel strip was transferred to a PVDF membrane at a constant current of 250 mA for 65 min. After the membrane transfer, the membrane was incubated in 1× QuickBlock blocking buffer (Beyotime, P0235) for 30 min at room temperature. […] The protein map was subjected to gray value analysis by the chemiluminescence imaging system from Clinx. […] Then the degradation rate was calculated by comparing the gray correction value with the gray correction value of the control group. Then nonlinear curve fitting was performed by GraphPad Prism 8 in the logarithmic concentration-inhibition rate to obtain the DC50 and Dmax values of the compounds.
(In general: In western blotting, separated proteins are transferred to a membrane and probed.)

The target of assay [2] is T1, SOS1 protein. Put plainly: SOS1 degradation assay (Western blot), SW-620 cells. The note with it: 24 h; for DC50: read-out: SW620 (G12V) DC50; for Dmax: read-out: SW620 (G12V) Dmax. It counts as cell-based. Also on record: host or cells: SW-620 (human cancer cell lines). As for the experimental part:
as §1, §2, §3

Bounds are passed on as bounds.

What is called DC50 is the midpoint of the concentration-degradation curve. One may read the Dmax as the greatest extent of degradation seen. With `COc1cc2nc(C)nc(N[C@H](C)c3cc(N)cc(C(F)(F)F)c3)c2cc1[C@H]1CC[C@H](C(=O)N2CCN(CCOCC3CCN(C(=O)c4ccc(Cl)c(N5CCC(=O)NC5=O)c4)CC3)CC2)CC1` [Example 33, 1-(5-(4-((2-(4-((1R,4R)-4-(4-(((R)-1-(3-amino-5-(trifluoromethyl)phenyl)ethyl)amino)-7-methoxy-2-methylquinazolin-6-yl)cyclohexane-1-carbonyl)piperazin-1-yl)ethoxy)methyl)piperidine-1-carbonyl)-2-chlorophenyl)dihydropyrimidine-2,4(1H,3H)-dione], at SOS1 protein [1], the DC50 lay within 100 to 500 nM and the Dmax is 80 to 100%. In addition, on SOS1 protein [2], the 50% degradation concentration (DC50) is under 50 nM and the Dmax lay within 80 to 100%.

`COc1cc2nc(C)nc(N[C@H](C)c3cc(N)cc(C(F)(F)F)c3)c2cc1[C@H]1CC[C@H](C(=O)N2CCN(CC3CCC4(CC3)CCN(C(=O)c3ccc(Cl)c(N5CCC(=O)NC5=O)c3)CC4)CC2)CC1` [Example 2, 1-(5-(9-((4-((1R,4R)-4-(4-(((R)-1-(3-amino-5-(trifluoromethyl)phenyl)ethyl)amino)-7-methoxy-2-methylquinazolin-6-yl)cyclohexane-1-carbonyl)piperazin-1-yl)methyl)-3-azaspiro[5.5]undecane-3-carbonyl)-2-chlorophenyl)dihydropyrimidine-2,4(1H,3H)-dione]: at SOS1 protein [1], the 50% degradation concentration (DC50) was under 50 nM and the Dmax was in the range of 80 to 100%. At SOS1 protein [2], the DC50 was under 50 nM and the Dmax fell in the range of 80 to 100%.

Take `COc1cc2nc(C)nc(N[C@H](C)c3cc(N)cc(C(F)(F)F)c3)c2cc1[C@H]1CC[C@H](C(=O)N2CCN(CCC3CCC4(CC3)CCN(C(=O)c3ccc(Cl)c(N5CCC(=O)NC5=O)c3)CC4)CC2)CC1` [Example 1, 1-(5-(9-(2-(4-((1R,4R)-4-(4-(((R)-1-(3-amino-5-(trifluoromethyl)phenyl)ethyl)amino)-7-methoxy-2-methylquinazolin-6-yl)cyclohexane-1-carbonyl)piperazin-1-yl)ethyl)-3-azaspiro[5.5]undecane-3-carbonyl)-2-chlorophenyl)dihydropyrimidine-2,4(1H,3H)-dione]: on SOS1 protein [1], the DC50 was under 50 nM and the Dmax lay within 80 to 100%. For the same compound, on SOS1 protein [2], the DC50 was under 50 nM and the Dmax is 80 to 100%.

As for `COc1cc2nc(C)nc(N[C@H](C)c3cc(N)cc(C(F)(F)F)c3)c2cc1[C@H]1CC[C@H](C(=O)N2CCC(CCOCC3CCN(C(=O)c4ccc(Cl)c(N5CCC(=O)NC5=O)c4)CC3)CC2)CC1` [Example 19, 1-(5-(4-((2-(1-((1R,4R)-4-(4-(((R)-1-(3-amino-5-(trifluoromethyl)phenyl)ethyl)amino)-7-methoxy-2-methylquinazolin-6-yl)cyclohexane-1-carbonyl)piperidin-4-yl)ethoxy)methyl)piperidine-1-carbonyl)-2-chlorophenyl)dihydropyrimidine-2,4(1H,3H)-dione], on SOS1 protein [1], the DC50 is 50 to 100 nM and the Dmax is 80 to 100%. At SOS1 protein [2], the DC50 was under 50 nM and the Dmax was 80 to 100%.

In the case of `COc1cc2nc(C)nc(N[C@H](C)c3cccc4c3CCS4(=O)=O)c2cc1[C@H]1CC[C@H](C(=O)N2CCN(CC3CCC4(CC3)CCN(C(=O)c3ccc(Cl)c(N5CCC(=O)NC5=O)c3)CC4)CC2)CC1` [Example 10, 1-(2-chloro-5-(9-((4-((1R,4R)-4-(4-(((R)-1-(1,1-dioxo-2,3-dihydrobenzo[b]thiophen-4-yl)ethyl)amino)-7-methoxy-2-methylquinazolin-6-yl)cyclohexane-1-carbonyl)piperazin-1-yl)methyl)-3-azaspiro[5.5]undecane-3-carbonyl)phenyl)dihydropyrimidine-2,4(1H,3H)-dione], the DC50 at SOS1 protein [1] and at SOS1 protein [2] was under 50 nM in each case. For the same compound, the Dmax on SOS1 protein [1] and at SOS1 protein [2] was 80 to 100% in each case.

With `CNCc1ccccc1-c1csc([C@@H](C)Nc2nc(C)nc3cc(OC)c([C@H]4CC[C@H](C(=O)N5CCN(CC6CCC7(CC6)CCN(C(=O)c6ccc(OC)c(N8CCC(=O)NC8=O)c6)CC7)CC5)CC4)cc23)c1` [Example 73, 1-(2-methoxy-5-(9-((4-((1R,4R)-4-(7-methoxy-2-methyl-4-(((R)-1-(4-(2-((methylamino)methyl)phenyl)thien-2-yl)ethyl)amino)quinazolin-6-yl)cyclohexane-1-carbonyl)piperazin-1-yl)methyl)-3-azaspiro[5.5]undecane-3-carbonyl)phenyl)dihydropyrimidine-2,4(1H,3H)-dione], at SOS1 protein [1], the DC50 lay in the range of 50 to 100 nM and the Dmax lay in the range of 80 to 100%. At SOS1 protein [2], the DC50 was under 50 nM and the Dmax lay in the range of 80 to 100%.

The values are drawn from patent publication US20240261417A1, “SOS1 DEGRADING AGENT AND PREPARATION METHOD THEREFOR AND APPLICATION THEREOF” (SHANGHAI LEADINGTAC PHARMACEUTICAL CO. LTD., priority 2021, published 2024).
